One test deals with T1, 5-HT3 (Rattus norvegicus, UniProt P35563).
T1 sequence (P35563 24-483): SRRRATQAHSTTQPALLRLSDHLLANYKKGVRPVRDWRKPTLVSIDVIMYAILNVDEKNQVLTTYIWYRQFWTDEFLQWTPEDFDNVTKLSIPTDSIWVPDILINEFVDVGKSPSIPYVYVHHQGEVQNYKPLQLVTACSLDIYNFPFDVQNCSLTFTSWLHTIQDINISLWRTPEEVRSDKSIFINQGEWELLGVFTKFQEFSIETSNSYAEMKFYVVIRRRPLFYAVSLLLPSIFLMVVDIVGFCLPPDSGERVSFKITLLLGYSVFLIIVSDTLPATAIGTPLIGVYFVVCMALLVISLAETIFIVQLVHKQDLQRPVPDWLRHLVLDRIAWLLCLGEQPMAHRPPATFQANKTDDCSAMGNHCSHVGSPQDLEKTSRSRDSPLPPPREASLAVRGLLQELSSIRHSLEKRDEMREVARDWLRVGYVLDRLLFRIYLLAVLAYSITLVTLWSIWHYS
The experiment in a line: biochemical. It counts as binding, Male Sprague-Dawley rats. As for the experimental part: A number of compounds in accordance with the present invention were tested for their 5-HT3 and D2 binding affinities in accord with the following procedures.
Male Sprague-Dawley rats (175-220 g) were sacrificed by decapitation and their brains removed rapidly. The entorhinal cortex was used for the 5-HT3 (5-hydroxytryptamine) binding assay and the remainder of the brain, minus the brain stem and cerebellum, was used for the D2 (dopamine) binding assay. The entorhinal cortex was harvested and prepared on the day of the assay.
The entorhinal cortex was homogenized in 20 volumes of cold 50 mM HEPES buffer, pH 7.4, while the remaining brain tissue was homogenized in 20 volumes of cold 50 mM Tris, pH 7.4. The homogenates were centrifuged at 4800×g for 15 minutes at 5° C. and the supernatants decanted. Pellets were resuspended in the original volume of HEPES or Tris. Homogenates were centrifuged and the supernatants decanted. Pellets were resuspended in the same volume of HEPES or Tris and incubated at 37° C. for 45 minutes to remove endogenous neurotransmitters. Homogenates were centrifuged and the supernatants were decanted. Pellets for D2 assays were stored at -50° C. until the day of the assay. The pellets for the 5-HT3 assay (entorhinal cortex) were resuspended in the appropriate amount of HEPES buffer and used promptly. Modifications of published assays for [^3 H]GR65630 (Kilpatrick et al., Nature: 330, 746-748 (1987)) and [^3 H]raclopride (Dewar et al., J. Pharmacol. Exp. Ther.: 250, 696-706 (1989) and Lidow et al., Proc. Natl. Acad. Sci. USA: 86, 6412-6416 (1989)) were used for the 5-HT3 and D2 binding assays, respectively.
Briefly, 0.25 ml of homogenate was incubated with either 0.2 nM of [^3 H]GR65630 or 1.0 nM of [^3 H]raclopride in a final volume of 0.5 ml. D2 binding also requires sodium chloride and potassium chloride (120 mM and 5 mM, final concentration, respectively). In the 5-HT3 assay, non-specific binding was defined in the presence of 100 uM quipazine. In the D2 assay, non-specific binding was defined in the presence of 100 uM of (+/-) sulpiride. Both assays were incubated at room temperature; [^3 H]GR65630 for 40 minutes and [^3 H]raclopride for 60 minutes. Test compounds (0.1 ml) were added to incubates where appropriate. Bound ligand was separated from free ligand by filtration and quantified using liquid scintillation spectrophotometry. IC50 values were calculate for all test compounds.

In a further test the test system is Ferret. Briefly: Cisplatin Ferret Assay--Antiemetic Screening. It counts as in vivo, Male ferrets. As to conditions: Mustela putorius, iv, 4 h; for inhibition in vivo at 0.1 mg/kg: read-out: Ferret Cisplatin Test % Prot, 0.1 mg/Kg; for ED50: read-out: Ferret Cisplatin Test ED50.
Setting [1] is: 0.2 nM [3H]GR65630, rat entorhinal cortex, 40 minutes, room temperature, read-out: 5-HT3 IC50.
Setting [2] is: 0.1 mg/kg i.v., 30 minutes after cisplatin 10 mg/kg i.v., percent reduction of emetic episodes vs controls, four hours.
Setting [3] is: i.v., 30 minutes after cisplatin 10 mg/kg i.v., emetic episodes over four hours.

Where a name gives a salt, the structure may show the parent alone. Read-outs that look alike come from different tables or passages of the source.

The IC50 is the concentration that gives 50% inhibition. As usually defined, the ED50 is the dose at which the effect has come halfway, by size or by number of responders.

Procedure for Ferret: Male ferrets (castrated, descented, 1-2 kg) were purchased from Triple F Farms, Syre, Pa. Ferrets were housed four in a cage with a 12 hour light cycle and were fed ad libitum with Ralston Purina Cat Chow. Each ferret was used unfasted for the assay after a minimum of a 24 hour acclimation time in animal facility.
Ferret Preparation. Each ferret was anesthetized with 5% isoflurane-O2in a 20 gallon aquarium for 2 to 5 minutes. After removal of the anesthetic gas, the animals were removed and weighed. Injections were made into the dorsal front paw vein using a tourniquet and a 1 ml tuberculin syringe with a 25 g needle while the animal was maintained under anesthesia using a small nose cone delivering 5% isoflurane-O2. Cisplatin was injected using a 3 ml or 5 ml syringe in the opposite paw from the study compound or saline. Recovery time from anaesthesia was 5 to 8 minutes.
Drug Preparation. Cisplatin bulk powder was weighed and dissolved in normal saline at 75° C. to provide a 5 mg/ml solution (90 mg was placed in a scintillation vial and qs with 18 ml saline). The solution was stirred and maintained at 40° C. until ready for use. The study drug was weighed and dissolved in normal saline at room temperature to provide a 1 mg/ml solution (10 mg was placed in a scintillation vial and qs with 10 ml saline). Suspensions were heated to 40° C. to bring the study compound into solution. Compounds not soluble under these conditions were not assayed.
Assay. Cisplatin was injected i.v. at 10 mg/kg into twelve anesthetized ferrets daily at time zero. Normal saline (0.5 ml) or the study compound (0.1 or 1.0 mg/kg) was injected 30 minutes later in groups of three anesthetized ferrets. Order of treatment and treatment dose was selected at random, with the remaining treatment dose assayed in the next experiment.
Experimental Observations and Data Collection. Ferrets were viewed individually. The time and number of emetic episodes were recorded for four hours. Zero time was equivalent to the time of cisplatin injection. […] Retches were recorded but not counted. The total number of episodes for each of the four groups of three ferrets (+/-S.E.) was averaged and the effect of treatment (% protection) was calculated as the percent reduction of emetic episodes compared to controls. [formula]
Percent protection values were determined from experimental controls. Experimental controls were those obtained from the day of the experiment. Onset times of the first episode were averaged and recorded for each group. Prodromal signs (lip licking, slit eyes, head shaking, salivation, scratching, clawing, walking backward, sedation, urination, and defecation) were also averaged and recorded.

The compound `CN1Cc2nc[nH]c2C[C@H]1C(=O)c1ccccc1` [Compd 38] showed an IC50 against 5-HT3 of 48.4 nM. For the same compound, the inhibition in vivo at 0.1 mg/kg with Ferret stood at 30%.

Consider `CN1Cc2nc[nH]c2C[C@@H]1C(=O)Nc1cccc2nsnc12` [Compd 21], for which the IC50 on 5-HT3 (setting [1]) was 1.98 nM. Further, the inhibition in vivo at 0.1 mg/kg in the test on Ferret (setting [2]) turned out to be 24%. In the test with Ferret (setting [3]), the ED50 was 0.39 mg/kg.

For the compound `CN1Cc2nc[nH]c2C[C@H]1C(=O)Nc1cccc2nsnc12` [Compd 23], on 5-HT3 (setting [1]), the IC50 turned out to be 15.9 nM. The inhibition in vivo at 0.1 mg/kg in the test with Ferret (setting [2]) came out at 100%. In the test on Ferret (setting [3]), the ED50 was found to be 0.016 mg/kg.

As to `CN1Cc2nc[nH]c2C[C@@H]1C(=O)Nc1nc2ccccc2s1` [Compd 13, (R)-6-(2-benzothiazolylaminocarbonyl)-5-methyl-4,5,6,7-tetrahydroimidazo[4,5-c]pyridine], the IC50 on 5-HT3 (setting [1]) is 71.5 nM. Moreover, the inhibition in vivo at 0.1 mg/kg with Ferret (setting [2]) was 76%. Moreover, in the test with Ferret (setting [3]), the ED50 was found to be 0.074 mg/kg.

As for `CC(=O)c1ccccc1NC(=O)[C@@H]1Cc2[nH]cnc2CN1C` [Compd 39, (S)-6-(2-acetylphenylaminocarbonyl)-5-methyl-4,5,6,7-tetrahydroimidazo[4,5-c]pyridine], on 5-HT3 (setting [1]), the IC50 was found to be 4.18 nM. In the test with Ferret (setting [2]), the inhibition in vivo at 0.1 mg/kg was 65%. Besides, in the test on Ferret (setting [3]), the ED50 came to 0.045 mg/kg.

`CN1Cc2nc[nH]c2C[C@H]1C(=O)Nc1nc2ccccc2s1` [Compd 22]: the half-inhibitory concentration (IC50) on 5-HT3 (setting [1]) was 37.2 nM. Further, the inhibition in vivo at 0.1 mg/kg in the test with Ferret (setting [2]) came to 14%.

Consider `CCN(CC)CCNC(=O)c1cc(Cl)c(N)cc1OC` [Metaclopramide, reference compound], for which, at 5-HT3, the IC50 amounted to 514 nM. In addition, the inhibition in vivo at 0.1 mg/kg in the test on Ferret (setting [2]) is 17%. Moreover, the median effective dose (ED50) with Ferret (setting [3]) is 4.08 mg/kg.

As to `CN1Cc2nc[nH]c2C[C@H]1C(=O)Nc1cccc2c1NCCC2` [Compd 36], the IC50 on 5-HT3 (setting [1]) worked out at 103 nM. The inhibition in vivo at 0.1 mg/kg in the test on Ferret (setting [2]) was found to be 70%. Also, the ED50 in the test with Ferret (setting [3]) was 0.081 mg/kg.

Take `CN1Cc2nc[nH]c2C[C@H]1C(=O)Nc1c(F)cccc1F` [Compd 34]: the IC50 on 5-HT3 (setting [1]) turned out to be 612 nM. The inhibition in vivo at 0.1 mg/kg in the test with Ferret (setting [2]) is 59%. Besides, the ED50 in the test on Ferret (setting [3]) came out at 0.15 mg/kg.

As for `COc1ccccc1NC(=O)[C@@H]1Cc2[nH]cnc2CN1` [Compd 14, (S)-6-(2-methoxyphenyl)aminocarbonyl-4,5,6,7-tetrahydroimidazo[4,5-c]pyridine], the IC50 on 5-HT3 (setting [1]) is 8.53 nM. In addition, in the test with Ferret (setting [2]), the inhibition in vivo at 0.1 mg/kg is 48%. The ED50 in the test on Ferret (setting [3]) came out at 0.062 mg/kg.

For `CN1Cc2nc[nH]c2C[C@@H]1C(=O)Nc1ccccc1Oc1ccccc1` [Compd 11], the IC50 on 5-HT3 (setting [1]) turned out to be 8.19 nM. For the same compound, in the test on Ferret (setting [2]), the inhibition in vivo at 0.1 mg/kg came out at 15%. Moreover, the ED50 with Ferret (setting [3]) came to 0.47 mg/kg.

Regarding `COc1ccc(OC)c(NC(=O)[C@@H]2Cc3nc[nH]c3CN2C)c1` [Compd 30, (S)-6-(2,5-dimethoxyphenylaminocarbonyl)-5-methyl-4,5,6,7-tetrahydoimidazo[4,5-c]pyridine dihydrochloride], the IC50 at 5-HT3 (setting [1]) was 69.7 nM. Besides, the inhibition in vivo at 0.1 mg/kg with Ferret (setting [2]) is 5%.

As to `CCOc1ccccc1NC(=O)[C@@H]1Cc2[nH]cnc2CN1C` [Compd 17], on 5-HT3 (setting [1]), the IC50 came to 15.4 nM. Moreover, the inhibition in vivo at 0.1 mg/kg with Ferret (setting [2]) was determined as 58%. In the test with Ferret (setting [3]), the ED50 came out at 0.2 mg/kg.

As for `COc1ccccc1NC(=O)[C@@H]1Cc2[nH]cnc2C(C)(C)N1C` [Compd 25], the IC50 at 5-HT3 (setting [1]) was determined as 14.1 nM. For the same compound, in the test on Ferret (setting [2]), the inhibition in vivo at 0.1 mg/kg was 93%. Moreover, the ED50 with Ferret (setting [3]) worked out at 0.026 mg/kg.

Turning to `CN1Cc2nc[nH]c2C[C@H]1C(=O)c1cc2ccccc2o1` [Compd 33, 6-(2-benzo[b]furanylcarbonyl)-5-methyl-4,5,6,7-tetrahydroimidazo[4,5-c]pyridine], the half-inhibitory concentration (IC50) on 5-HT3 (setting [1]) amounted to 2020 nM. In the test on Ferret, the inhibition in vivo at 0.1 mg/kg was 31% and the ED50 was 0.43 mg/kg.

As for `CN1Cc2nc[nH]c2C[C@H]1C(=O)c1cc2ccccc2s1` [Compd 32, 6-(2-benzo[b]thiophenylcarbonyl)-5-methyl-4,5,6,7-tetrahydroimidazo[4,5-c]pyridine], the half-inhibitory concentration (IC50) at 5-HT3 (setting [1]) was found to be 234 nM. Besides, in the test with Ferret, the inhibition in vivo at 0.1 mg/kg was found to be 41% and the ED50 was found to be 0.11 mg/kg.

For `CN1Cc2nc[nH]c2C[C@H]1C(=O)Nc1ccccc1F` [Compd 29], the IC50 at 5-HT3 (setting [1]) worked out at 335 nM. The inhibition in vivo at 0.1 mg/kg in the test on Ferret (setting [2]) was 88%. For the same compound, the ED50 in the test with Ferret (setting [3]) amounted to 0.024 mg/kg.

Source of the values: patent US5262537A, “Derivatives of 4,5,6,7-tetrahydroimidazo-[4,5-c]pyridinyl-6-carboxylic acid” (priority 1993, dated 1993).
